These results are taken from US9714239B2, “N-phenyl-lactam derivatives capable of stimulating neurogenesis and their use in the treatment of neurological disorders” (Hoffmann-La Roche Inc., priority 2014, dated 2017).

The subject of this assay is human embryonic stem cell derived neural stem cells (NSCs). Kind of assay: Neurogenesis assay: neural stem cell proliferation assay. The note with it: 96 h, compound concentration at which 150% activity of control (100%) is reached, increase in cells based on ATP levels (CellTiterGlo), 4 days incubation, dose response 8 μM to 8 nM. As to the method: Neural Stem Cell Proliferation Assay
Neurogenic properties of small molecules are determined based on the proliferation of human embryonic stem cell derived neural stem cells (NSCs) which were derived via a dual smad inhibition as previously described (Chambers, S. M., et al., Highly efficient neural conversion of human ES and iPS cells by dual inhibition of SMAD signaling, Nature biotechnology, 2009 27(3): p. 275-80.).
Compounds response is measured by the increase in cells based on ATP levels (Promega:CellTiterGlo®) after an incubation period of 4 days. NSCs are thawed and expanded over 3 passages. On the 14th day, NSCs are seeded in Polyornithin/Laminin coated 384 well plates at a cell density of 21,000 cells/cm^2 in a media volume of 38 μl.
4 hours after cell seeding, compound solutions are added at a volume of 2 μl. Stock solutions of the compounds (water, 5% DMSO) are diluted to obtain a dose response (11 points, dilution factor is 2), ranging from 8 μM to 8 nM. Controls are run to consistently determine the neurogenic properties of the cells:
Negative (neutral) control is cell culture Media (final DMSO concentration: 0.25%).
1. cell culture Media+100 ng/ml FGF2 (final DMSO concentration: 0.1%)
2. cell culture Media+20 ng/ml EGF (final DMSO concentration: 0.1%)
3. cell culture Media+100 ng/ml Wnt3a (final DMSO concentration: 0.1%)
After 4 days incubation at 37° C., 5% CO2, the amount of ATP per well is quantified. The ATP concentration is proportional to the cell number. ATP is quantified by using the Promega CellTiterGlo® kit. The CellTiterGlo® reagents contain a cell lysis buffer, a thermo stable luciferase (UltraGlo™ recombinant luciferase), magnesium and luciferin. Luciferin reacts with ATP producing oxyluciferin, AMP and light. The luminescence signal is proportional to the ATP content.
The value of negative (neutral) control is determined for each assay plate by taking the average of 16 negative control wells. The neurogenic compound response is calculated for each compound as (compound/Negative Control)*100. The values of EC150 from the dose response curve are determined for each test compound. The EC150 is the compound concentration at which 150% activity of control (100%) is reached.

The structures appear in SMILES notation.

`COc1cc(N2CCN(Cc3cccc(C)c3)C2=O)ccc1-c1cn[nH]c1` [Example 35, 1-[3-Methoxy-4-(1H-pyrazol-4-yl)phenyl]-3-(m-tolylmethyl)imidazolidin-2-one] showed an EC (150% of control) of 2.65 µM.

In turn, `COc1cc(N2CCC(Cc3cccc(Cl)c3)C2=O)ccc1-c1cn[nH]c1` (stereo not shown) [Example 36, 3-[(3-Chlorophenyl)methyl]-1-[3-methoxy-4-(1H-pyrazol-4-yl)phenyl]pyrrolidin-2-one] showed an EC (150% of control) of 1.65 µM.

`COc1cc(N2CCC(Cc3ccccc3Cl)C2=O)ccc1-c1cn[nH]c1` (stereo not shown) [Example 37, 3-[(2-Chlorophenyl)methyl]-1-[3-methoxy-4-(1H-pyrazol-4-yl)phenyl]pyrrolidin-2-one] returned an EC (150% of control) of 1.13 µM.

`COc1cc(N2CCC(c3cccc(Cl)c3)C2=O)ccc1-c1cnco1` (stereo not shown) [Example 38, 3-(3-Chlorophenyl)-1-[3-methoxy-4-(1,3-oxazol-5-yl)phenyl]pyrrolidin-2-one] registered an EC (150% of control) of 1.35 µM.

Turning to `COc1cccc(CN2CCN(c3ccc(-c4cn[nH]c4)cc3OC)C2=O)c1` [Example 39, 1-[(3-Methoxyphenyl)methyl]-3-[2-methoxy-4-(1H-pyrazol-4-yl)phenyl]imidazolidin-2-one], the EC (150% of control) was 0.393 µM.

The compound `COc1cccc(CC2CCN(c3ccc(-c4cn[nH]c4)c(OC)c3)C2=O)c1` (stereo not shown) [Example 40, 3-[(3-Methoxyphenyl)methyl]-1-[3-methoxy-4-(1H-pyrazol-4-yl)phenyl]pyrrolidin-2-one] came in with an EC (150% of control) of 0.334 µM.

In turn, `COc1cc(N2CCC(c3ccccc3OC)C2=O)ccc1-c1cnco1` (stereo not shown) [Example 41, 1-[3-Methoxy-4-(1,3-oxazol-5-yl)phenyl]-3-(2-methoxyphenyl)pyrrolidin-2-one] displayed an EC (150% of control) of 2.91 µM.

`COc1ccccc1CN1CCN(c2ccc(-c3cn[nH]c3)c(OC)c2)C1=O` [Example 42, 1-[(2-Methoxyphenyl)methyl]-3-[3-methoxy-4-(1H-pyrazol-4-yl)phenyl]imidazolidin-2-one] came in with an EC (150% of control) of 0.308 µM.

`COc1cc(N2CCN(CCc3ccccc3)C2=O)ccc1-c1cn[nH]c1` [Example 43, 1-[3-Methoxy-4-(1H-pyrazol-4-yl)phenyl]-3-(2-phenylethyl)imidazolidin-2-one] gave an EC (150% of control) of 0.309 µM.

`COc1ccccc1CCN1CCN(c2ccc(-c3cn[nH]c3)c(OC)c2)C1=O` [Example 44, 1-[2-(2-Methoxyphenyl)ethyl]-3-[3-methoxy-4-(1H-pyrazol-4-yl)phenyl]imidazolidin-2-one] returned an EC (150% of control) of 1.98 µM.

Turning to `COc1cc(N2CCN(CCc3ccccc3Cl)C2=O)ccc1-c1cn[nH]c1` [Example 45, 1-[2-(2-Chlorophenyl)ethyl]-3-[3-methoxy-4-(1H-pyrazol-4-yl)phenyl]imidazolidin-2-one], the EC (150% of control) came out at 0.136 µM.

In turn, `COc1cccc(CN2CCN(c3ccc(-c4cn[nH]c4)cc3Cl)C2=O)c1` [Example 46, 1-[2-Chloro-4-(1H-pyrazol-4-yl)phenyl]-3-[(3-methoxyphenyl)methyl]imidazolidin-2-one] showed an EC (150% of control) of 1.83 µM.

On to `COc1cc(N2CCN(Cc3ccc(F)cc3)C2=O)ccc1-c1cn[nH]c1` [Example 47, 1-[(4-Fluorophenyl)methyl]-3-[3-methoxy-4-(1H-pyrazol-4-yl)phenyl]imidazolidin-2-one], for which the EC (150% of control) was 0.768 µM.

In the case of `COc1cc(N2CCN(Cc3cccnc3)C2=O)ccc1-c1cn[nH]c1` [Example 48, 1-[3-Methoxy-4-(1H-pyrazol-4-yl)phenyl]-3-(3-pyridylmethyl)imidazolidin-2-one], the EC (150% of control) was 0.119 µM.

Compound `COc1cc(N2CCN(CCc3cccc(Cl)c3)C2=O)ccc1-c1cn[nH]c1` [Example 49, 1-[2-(3-Chlorophenyl)ethyl]-3-[3-methoxy-4-(1H-pyrazol-4-yl)phenyl]imidazolidin-2-one] came in with an EC (150% of control) of 1.73 µM.

In turn, `COc1cc(N2CCN(CCc3ccc(Cl)cc3)C2=O)ccc1-c1cn[nH]c1` [Example 50, 1-[2-(4-Chlorophenyl)ethyl]-3-[3-methoxy-4-(1H-pyrazol-4-yl)phenyl]imidazolidin-2-one] came in with an EC (150% of control) of 2.01 µM.

The compound `CCC(c1ccccc1)N1CCN(c2ccc(-c3cn[nH]c3)c(OC)c2)C1=O` (stereo not shown) [Example 51, 1-[3-Methoxy-4-(1H-pyrazol-4-yl)phenyl]-3-(1-phenylpropyl)imidazolidin-2-one] had an EC (150% of control) of 0.594 µM.

The compound `COc1cccc(C2CCN(c3ccc(-c4cnco4)cc3)C2=O)c1` (stereo not shown) [Example 52, 3-(3-Methoxyphenyl)-1-[4-(1,3-oxazol-5-yl)phenyl]pyrrolidin-2-one] had an EC (150% of control) of 0.517 µM.

Compound `O=C1C(c2ccccc2)CCN1c1ccc(-c2cnco2)cc1` (stereo not shown) [Example 53, 1-[4-(1,3-Oxazol-5-yl)phenyl]-3-phenylpyrrolidin-2-one] came in with an EC (150% of control) of 2.21 µM.

With `COc1cc(N2CCN(Cc3ccccc3C(F)(F)F)C2=O)ccc1-c1ccncc1` [Example 54, 1-[3-Methoxy-4-(4-pyridyl)phenyl]-3-[[2-(trifluoromethyl)phenyl]methyl]imidazolidin-2-one], the EC (150% of control) came out at 0.0351 µM.

Take `COc1cc(N2CCN(Cc3ccncc3)C2=O)ccc1-c1ccncc1` [Example 55, 1-[3-Methoxy-4-(4-pyridyl)phenyl]-3-(4-pyridylmethyl)imidazolidin-2-one]: the EC (150% of control) amounted to 0.377 µM.

`COc1cc(N2CCC(c3cccc(C(F)(F)F)c3)C2=O)ccc1-c1cnco1` (stereo not shown) [Example 56, 1-[3-Methoxy-4-(1,3-oxazol-5-yl)phenyl]-3-[3-(trifluoromethyl)phenyl]pyrrolidin-2-one] registered an EC (150% of control) of 1.86 µM.

`O=C1C(c2ccccc2F)CCN1c1ccc(-c2cnco2)cc1` (stereo not shown) [Example 57, 3-(2-Fluorophenyl)-1-[4-(1,3-oxazol-5-yl)phenyl]pyrrolidin-2-one] returned an EC (150% of control) of 0.525 µM.

Compound `COc1cc(N2CCC(c3ccccc3F)C2=O)ccc1-c1cnco1` (stereo not shown) [Example 58, 3-(2-Fluorophenyl)-1-[3-methoxy-4-(1,3-oxazol-5-yl)phenyl]pyrrolidin-2-one] yielded an EC (150% of control) of 0.23 µM.

`COc1cccc(CN2CCN(c3ccc(-c4cnco4)cc3)C2=O)c1` [Example 59, 1-[(3-Methoxyphenyl)methyl]-3-[4-(1,3-oxazol-5-yl)phenyl]imidazolidin-2-one]: the EC (150% of control) was determined as 0.122 µM.

`O=C1C(c2cccc(F)c2)CCN1c1ccc(-c2cnco2)cc1` (stereo not shown) [Example 60, 3-(3-Fluorophenyl)-1-[4-(1,3-oxazol-5-yl)phenyl]pyrrolidin-2-one] had an EC (150% of control) of 0.605 µM.

With `COc1cc(N2CCC(c3cccc(F)c3)C2=O)ccc1-c1cnco1` (stereo not shown) [Example 61, 3-(3-Fluorophenyl)-1-[3-methoxy-4-(1,3-oxazol-5-yl)phenyl]pyrrolidin-2-one], the EC (150% of control) was 0.262 µM.

Take `COc1cc(N2CCN(Cc3ccncc3)C2=O)ccc1-c1cn[nH]c1` [Example 62, 1-[3-Methoxy-4-(1H-pyrazol-4-yl)phenyl]-3-(4-pyridylmethyl)imidazolidin-2-one]: the EC (150% of control) was determined as 0.042 µM.

Compound `COc1cc(N2CCN(Cc3ccccn3)C2=O)ccc1-c1cn[nH]c1` [Example 63, 1-[3-Methoxy-4-(1H-pyrazol-4-yl)phenyl]-3-(2-pyridylmethyl)imidazolidin-2-one] yielded an EC (150% of control) of 0.255 µM.

Take `COc1cc(N2CCN(CC(C)c3ccccc3)C2=O)ccc1-c1cn[nH]c1` (stereo not shown) [Example 64, 1-[3-Methoxy-4-(1H-pyrazol-4-yl)phenyl]-3-(2-phenylpropyl)imidazolidin-2-one]: the EC (150% of control) came out at 0.387 µM.

On to `COc1cc(N2CCN(Cc3cccc(C)c3)C2=O)ccc1-c1ccncc1` [Example 65, 1-[3-Methoxy-4-(4-pyridyl)phenyl]-3-(m-tolylmethyl)imidazolidin-2-one], for which the EC (150% of control) turned out to be 0.0298 µM.

`COc1cc(N2CCN(Cc3cccnc3)C2=O)ccc1-c1ccncc1` [Example 66, 1-[3-Methoxy-4-(4-pyridyl)phenyl]-3-(3-pyridylmethyl)imidazolidin-2-one] showed an EC (150% of control) of 0.4 µM.

Consider `COc1ccccc1CN1CCN(c2ccc(-c3cnco3)c(OC)c2)C1=O` [Example 67, 1-[3-Methoxy-4-(1,3-oxazol-5-yl)phenyl]-3-[(2-methoxyphenyl)methyl]imidazolidin-2-one], for which the EC (150% of control) turned out to be 0.702 µM.

Compound `COc1cccc(CN2CCN(c3ccc(-c4cnco4)c(OC)c3)C2=O)c1` [Example 68, 1-[3-Methoxy-4-(1,3-oxazol-5-yl)phenyl]-3-[(3-methoxyphenyl)methyl]imidazolidin-2-one] had an EC (150% of control) of 0.316 µM.
